Data as given in PMC12649353, “Bioavailability of Thymol Incorporated into Gastro-Resistant Self-Emulsifying Pellets in Rabbits” (Animals : an Open Access Journal from MDPI, 2025).
Values joined by “and” are separate entries in the source; they are usually repeats but may differ in a detail not shown here. Equal entries are not always repeated. Where two headings read alike, the source gives them in different places.

How the values were obtained:
[1] = design: method as in earlier work; conditions: weak acid; cited from earlier work
[2] = Thymol in plasma, tissues, large intestinal content and faeces (SPME GC/MS)
Description: A total of 48 rabbits of both sexes (an equal male-to-female ratio per treatment) at five weeks of age were randomly divided into two dietary treatment groups (24 rabbits in each); a control group (CG) fed a standard diet to which enteric pellets without thymol were added and an experimental group (EG) fed a standard diet into which enteric pellets with thymol (250 mg/kg) were incorporated. Plasma and tissue samples from the control group were used as blank samples to construct calibration curves. The rabbits of meat line M91, maternal albinotic line (cross breed New Zealand White, Bouscat rabbit, Argente Champagnet rabbit) and paternal acromalictic line (crossbreed Nitra’s rabbit, Californian rabbit, Big light silver) were used in this experiment. The animals were fed ad libitum and had free access to drinking water. All the experimental wire-net cages (61 cm × 34 cm × 33 cm) were kept in rooms with automatic temperature and humidity control through a digital thermograph (22 ± 4 °C, 70 ± 5%). A lighting regimen of 16 h light and 8 h dark was applied throughout the experiment. The experiment lasted 28 days. The EG rabbits received feed with thymol pellets for 21 days (56 d of age) and for the next 7 days (63 d of age) received pellets without thymol incorporated into feed.
To determine the thymol content in plasma, blood (1.5 mL) from nine rabbits was collected from the marginal ear vein (vena auricularis) into heparinised Eppendorf tubes, and plasma was obtained after centrifugation at 1180× g for 15 min. The gastrointestinal tract was removed from the body cavity and was divided into the small intestine (duodenum and jejunum), caecum and colon (n = 9). Caecum and colon contents were removed, and the small intestinal lumen was gently washed with a 0.9% NaCl solution. The obtained samples of duodenal wall (DW), jejunal wall (JW) and gut content together with plasma, liver, kidney, muscle (longissimus thoracis et lumborum, LTL) and spleen tissue, fat, and faeces were immediately frozen in liquid nitrogen and stored at −70 °C until analysed. All samples were collected on both experimental days (56 or 63 d of age).
Thymol was determined using solid-phase microextraction (SPME) coupled with gas chromatography/mass spectrometry (GC/MS). The analytical system comprised an Agilent 7890A gas chromatograph (Agilent Technologies, Wilmington, DE, USA) interfaced with an Agilent 5975C Mass Selective Detector (VL MSD with Triple-Axis Detector), Agilent Technologies, Wilmington, DE, USA). Chromatographic separation was achieved on an HP-5MS capillary column (Agilent 19091S-433) with dimensions of 30 m in length, 0.250 mm inner diameter and 0.25 μm film thickness. Helium served as the carrier gas under strictly controlled flow (an initial flow rate of 2.77 mL/min and a post-run flow of 1.3 mL/min) and inlet pressure (approximately 23.27 psi). Sample preparation was carried out using solid-phase microextraction (SPME), a solvent-free and efficient extraction technique that utilises the adsorption of analytes onto a polymer-coated fibre. For this purpose, a 65 μm polydimethylsiloxane/divinylbenzene (PDMS/DVB) StableFlex fibre assembly (23Ga, Supelco 57293-U, Sigma-Aldrich, St. Louis, MO, USA) was employed in combination with a PAL autosampler (CTC Analytics, Zwingen, Switzerland). Due to fibre wear, the SPME fibre was replaced after every 40 to 60 samples to ensure consistent extraction performance.
For determination of the total content of thymol plasma and homogenized tissue samples were enzymatically hydrolysed with β-glucuronidase from Helix pomatia (Sigma-Aldrich, St. Louis, MO, USA) at 37 °C and pH 5 for 30 min to cleave thymol conjugates. Following hydrolysis, samples were salted out with sodium chloride (1.00 g), acidified with phosphoric acid (85%) and spiked with an o-cresol internal standard. All reagent concentrations and incubation conditions were applied as described in the previous study by Oceľová et al..

[3] = cited from earlier work
[4] = Growth performance of broiler rabbits fed thymol pellets; assay type: in vivo; conditions: for live weight / average weight gain per rabbit / conversion ratio: EG
Description: The experiment lasted 28 days.
Body weight (BW) and feed intake (FI) were recorded individually once a week. The average daily FI, average daily weight gain (WG) and feed conversion ratio (FCR) were calculated at the end of the period (at 56 d of age and 63 d of age).

[5] = Thymol stability in feed (HPLC); assay type: physicochemical; conditions: enteric SES pellets in feed
Description: Thymol evaporation in feed was analysed every week during thymol application using high-performance liquid chromatography (HPLC) according to the modified method of Oceľová [10] and Pisarčíková et al.. Samples were analysed in triplicate. Briefly, 2 mL of methanol was added to a glass tube containing 0.2 g of milled feed, and thymol was extracted in an ultrasonic bath. The methanolic extract was then analysed using the HPLC method with an Ultimate 3000 HPLC-system liquid chromatograph (Dionex, Sunnyvale, CA, USA). The chromatographic analyses were evaluated using Chromeleon® Software Version 6.80 SR10 Build 2906 (Thermo Fisher Scientific, Waltham, MA, USA).

[6] = powder form, after thymol withdrawal
[7] = same concentration of thymol, powder non-pelleted form
[8] = thymol 250 mg/kg feed, 56 d of age

Question: For `Cc1ccc(C(C)C)c(O)c1` [thymol, Thymol], which “dissociation constant pKA” value [1] is on record?
Answer: 10.62

Question: What about the thymol in muscle ([2]; after thymol withdrawal (7 d)) of the same compound?
Answer: below LOQ

Question: What about the thymol in plasma ([2]; after thymol withdrawal (7 d)) of the same compound?
Answer: below LOQ

Question: What about the thymol in spleen ([2]; after thymol withdrawal (7 d)) of the same compound?
Answer: below LOQ

Question: What about the “Spearman correlation (rs) of thymol concentration, DW and kidney” value ([2]; both, rabbit, in vivo) of the same compound?
Answer: 0.9833

Question: What about the “Spearman correlation (rs) of thymol concentration, DW and muscle” value ([2]; both, rabbit, in vivo) of the same compound?
Answer: 0.8167

Question: And the “Spearman correlation (rs) of thymol concentration, JW and muscle” value ([2]; both, rabbit, in vivo)?
Answer: 0.8500

Question: What about the “Spearman correlation (rs) of thymol concentration, plasma and kidney” value ([2]; both, rabbit, in vivo) of the same compound?
Answer: 0.9167

Question: What about the “Spearman correlation (rs) of thymol concentration, plasma and muscle” value ([2]; both, rabbit, in vivo) of the same compound?
Answer: 0.8667

Question: And the “thymol concentration in DW, times higher than in JW” value ([2]; both, rabbit, in vivo)?
Answer: 1.1 times

Question: What about the “thymol concentration in DW, times higher than in caecum” value ([2]; both, rabbit, in vivo) of the same compound?
Answer: 1.9 times

Question: What about the “thymol concentration in DW, times higher than in colon” value ([2]; both, rabbit, in vivo) of the same compound?
Answer: 1.3 times

Question: And the concentration at 21 d ([2]; both, rabbit, in vivo, 250 mg/kg)?
Answer: 213 ng/mL and 753 ng/g

Question: And the “Spearman correlation (rs) of thymol concentration, plasma and DW” value ([2]; both, rabbit, in vivo, 21 d)?
Answer: 0.9333

Question: What about the “thymol concentration in DW, times higher than in JW” value ([2]; both, rabbit, in vivo, 21 d) of the same compound?
Answer: 1.4 times

Question: What about the “thymol concentration in DW, times higher than in caecum” value ([2]; both, rabbit, in vivo, 21 d) of the same compound?
Answer: 1.7 times

Question: What about the “thymol concentration in DW, times higher than in colon” value ([2]; both, rabbit, in vivo, 21 d) of the same compound?
Answer: 1.3 times

Question: And the “thymol in all tissues (plasma, liver, kidney, spleen, fat, muscle) and entire intestinal tract” value ([2]; rabbit, in vivo)?
Answer: above LOQ

Question: What about the “thymol in all intestinal segments and organs” value [3, 6] of the same compound?
Answer: below the detection limit

Question: What about the thymol in spleen [3, 6] of the same compound?
Answer: not detected

Question: What about the “thymol in muscle and fat tissues” value ([3]; powder form, during application) of the same compound?
Answer: below the detection limit

Question: And the “thymol concentration in DW, times lower than in caecum” value [3, 7]?
Answer: 3.3 times

Question: What about the “thymol concentration in DW, times lower than in colon” value [3, 7] of the same compound?
Answer: 2.5 times

Question: And the live weight ([4]; 63 d of age (7 d after thymol withdrawal))?
Answer: 2525 ± 63.2 g

Question: And the “average weight gain per rabbit” value ([4]; 63 d of age (after withdrawal))?
Answer: 40.24 ± 2.94 g/day

Question: And the conversion ratio ([4]; 63 d of age (after withdrawal))?
Answer: 4.24 ± 0.29

Question: And the “average weight gain per rabbit” value [4, 8]?
Answer: 36.25 ± 1.48 g/day

Question: And the conversion ratio [4, 8]?
Answer: 4.44 ± 0.25

Question: What about the live weight ([4]; thymol 250 mg/kg feed, 56 d of age (21 d with thymol)) of the same compound?
Answer: 2497 ± 46.9 g

Question: What about the growth performance ([4]; thymol addition 250 mg/kg feed vs control) of the same compound?
Answer: not influenced

Question: What about the “concentration of thymol in feed” value ([5]; 0 d of thymol application) of the same compound?
Answer: 246.1 ± 5.8 µg/g DM

Question: What about the “concentration of thymol in feed” value ([5]; 7 d of thymol application) of the same compound?
Answer: 197.8 ± 8.3 µg/g DM

Question: And the “concentration of thymol in feed” value ([5]; 14 d of thymol application)?
Answer: 221.9 ± 5.1 µg/g DM
